Measurements reported in ChEMBL document CHEMBL3797079, “Synergistic reduction of HIV-1 infectivity by 5-azacytidine and inhibitors of ribonucleotide reductase” (Bioorg Med Chem, 2016).
The source made the active and inactive calls. The calls are words filed in the database; no cut-off is given here.

Assays:
U373-MAGI [1] = experiment: Effect on dRGU-TP level in human U373-MAGI cells at 0.5 mM preincubated for 2 hrs followed by 5-aza-dC addition measured after 4 hrs by LC-MS/MS analysis; type: functional, cell-based
U373-MAGI [2] = experiment: Effect on dRGU-TP level in human U373-MAGI cells at 2 mM preincubated for 2 hrs followed by 5-aza-dC addition measured after 4 hrs by LC-MS/MS analysis; type: functional, cell-based
U373-MAGI [3] = experiment: Reduction in dCTP level in human U373-MAGI cells at 0.5 mM preincubated for 2 hrs followed by 5-aza-dC addition measured after 4 hrs by LC-MS/MS analysis relative to 5-aza-dC; type: functional, cell-based
U373-MAGI [4] = experiment: Reduction in dCTP level in human U373-MAGI cells at 2 mM preincubated for 2 hrs followed by 5-aza-dC addition measured after 4 hrs by LC-MS/MS analysis relative to 5-aza-dC; type: functional, cell-based
U373-MAGI [5] = experiment: Increase in 5-aza-dCTP/dCTP ratio in human U373-MAGI cells at 2 mM preincubated for 2 hrs followed by 5-aza-C addition measured after 4 hrs by LC-MS/MS analysis relative to 5-aza-C; type: functional, cell-based
U373-MAGI [6] = experiment: Reduction in dCTP level in human U373-MAGI cells at 0.5 mM after 6 hrs by LC-MS/MS analysis; type: functional, cell-based
U373-MAGI [7] = experiment: Reduction in dCTP level in human U373-MAGI cells at 2 mM after 6 hrs by LC-MS/MS analysis; type: functional, cell-based
U373-MAGI [8] = experiment: Increase in 5-aza-dCTP/dCTP ratio in human U373-MAGI cells at 0.5 mM preincubated for 2 hrs followed by 5-aza-C addition measured after 4 hrs by LC-MS/MS analysis relative to 5-aza-C; type: functional, cell-based
U373-MAGI [9] = experiment: Reduction in dATP level in human U373-MAGI cells at 0.5 mM after 6 hrs by LC-MS/MS analysis; type: functional, cell-based
U373-MAGI [10] = experiment: Reduction in dATP level in human U373-MAGI cells at 2 mM after 6 hrs by LC-MS/MS analysis; type: functional, cell-based
U373-MAGI [11] = experiment: Effect on 5-aza-dCTP level in human U373-MAGI cells at 0.5 mM preincubated for 2 hrs followed by 5-aza-dC addition measured after 4 hrs by LC-MS/MS analysis; type: functional, cell-based
U373-MAGI [12] = experiment: Effect on 5-aza-dCTP level in human U373-MAGI cells at 2 mM preincubated for 2 hrs followed by 5-aza-dC addition measured after 4 hrs by LC-MS/MS analysis; type: functional, cell-based
U373-MAGI [13] = experiment: Reduction in dCTP level in human U373-MAGI cells at 0.5 mM preincubated for 2 hrs followed by 5-aza-C addition measured after 4 hrs by LC-MS/MS analysis; type: functional, cell-based
U373-MAGI [14] = experiment: Reduction in dCTP level in human U373-MAGI cells at 2 mM preincubated for 2 hrs followed by 5-aza-C addition measured after 4 hrs by LC-MS/MS analysis relative to 5-aza-C; type: functional, cell-based
U373-MAGI [15] = experiment: Reduction in dRGU-TP level in human U373-MAGI cells at 0.5 mM preincubated for 2 hrs followed by 5-aza-C addition measured after 4 hrs by LC-MS/MS analysis; type: functional, cell-based
U373-MAGI [16] = experiment: Reduction in dRGU-TP level in human U373-MAGI cells at 2 mM preincubated for 2 hrs followed by 5-aza-C addition measured after 4 hrs by LC-MS/MS analysis; type: functional, cell-based
U373-MAGI [17] = experiment: Increase in 5-aza-dCTP/dCTP ratio in human U373-MAGI cells at 0.5 mM preincubated for 2 hrs followed by 5-aza-dC addition measured after 4 hrs by LC-MS/MS analysis relative to 5-aza-dC; type: functional, cell-based
U373-MAGI [18] = experiment: Increase in 5-aza-dCTP/dCTP ratio in human U373-MAGI cells at 2 mM preincubated for 2 hrs followed by 5-aza-dC addition measured after 4 hrs by LC-MS/MS analysis relative to 5-aza-dC; type: functional, cell-based
[19] = test system: Human immunodeficiency virus 1; experiment: Potentiation of 5-Aza-C-induced antiviral activity against VSV-G pseudotyped HIV-1 NL4-3 infected in human U373-MAGI cells assessed as decrease in 5-Aza-C EC50 at 500 uM preincubated for 2 hrs followed by 5-Aza-C addition for 2 hrs and subsequent viral infection measured at 72 hrs post infection by flow cytometric analysis relative to control; type: functional
[20] = test system: Human immunodeficiency virus 1; experiment: Antiviral activity against VSV-G pseudotyped HIV-1 NL4-3 infected in human U373-MAGI cells assessed as reduction in viral infectivity at 500 uM incubated for 4 hrs prior to viral infection measured at 72 hrs post infection by flow cytometric analysis; type: functional, organism-based
[21] = Cytotoxicity against human U373-MAGI cells at 500 uM measured at 72 hrs by Celltiter-Glo luminescent cell viability assay; type: cell-based
U373-MAGI [22] = experiment: Reduction in 5-aza-dCTP level in human U373-MAGI cells at 0.5 mM preincubated for 2 hrs followed by 5-aza-C addition measured after 4 hrs by LC-MS/MS analysis; type: functional, cell-based
U373-MAGI [23] = experiment: Reduction in dTTP level in human U373-MAGI cells at 0.5 mM after 6 hrs by LC-MS/MS analysis; type: functional, cell-based
U373-MAGI [24] = experiment: Reduction in dTTP level in human U373-MAGI cells at 2 mM after 6 hrs by LC-MS/MS analysis; type: functional, cell-based
U373-MAGI [25] = experiment: Reduction in dGTP level in human U373-MAGI cells at 0.5 mM after 6 hrs by LC-MS/MS analysis; type: functional, cell-based
U373-MAGI [26] = experiment: Reduction in dGTP level in human U373-MAGI cells at 2 mM after 6 hrs by LC-MS/MS analysis; type: functional, cell-based
U373-MAGI [27] = experiment: Reduction in 5-aza-dCTP level in human U373-MAGI cells at 2 mM preincubated for 2 hrs followed by 5-aza-C addition measured after 4 hrs by LC-MS/MS analysis; type: functional, cell-based
[28] = test system: Human immunodeficiency virus 1; experiment: Antiviral activity against VSV-G pseudotyped HIV-1 NL4-3 infected in human U373-MAGI cells assessed as increase in frequency of G to C transversion at 260 uM incubated for 2 hrs prior to infection measured at 72 hrs post infection by illumina sequencing method relative to control; type: functional
[29] = test system: Human immunodeficiency virus 1; experiment: Antiviral activity against VSV-G pseudotyped HIV-1 NL4-3 infected in human U373-MAGI cells assessed as increase in frequency of C to G transversion at 260 uM incubated for 2 hrs prior to infection measured at 72 hrs post infection by illumina sequencing method relative to control; type: functional
[30] = Reduction in dCTP level in human U373-MAGI cells at EC75 after 4 hrs by LC-MS/MS analysis relative to control; type: functional; parameters: scale not given: the % may be the effect or the level left
[31] = test system: Human immunodeficiency virus 1; experiment: Antiviral activity against VSV-G pseudotyped HIV-1 NL4-3 infected in human U373-MAGI cells assessed as increase in mutation frequency at 260 uM incubated for 2 hrs prior to infection measured at 72 hrs post infection by illumina sequencing method; type: functional
[32] = test system: Human immunodeficiency virus 1; experiment: Antiviral activity against VSV-G pseudotyped HIV-1 NL4-3 infected in human U373-MAGI cells assessed as G to C transversion at 260 uM incubated for 2 hrs prior to infection measured at 72 hrs post infection by illumina sequencing method relative to control; type: functional
[33] = test system: Human immunodeficiency virus 1; experiment: Antiviral activity against VSV-G pseudotyped HIV-1 NL4-3 infected in human U373-MAGI cells assessed as reduction in gag level at 25 to 400 uM after 2 to 72 hrs by qPCR method; type: functional, organism-based
[34] = test system: Human immunodeficiency virus 1; experiment: Antiviral activity against VSV-G pseudotyped HIV-1 NL4-3 infected in human U373-MAGI cells assessed as reduction in U5-gag level at 25 to 400 uM after 2 to 72 hrs by qPCR method; type: functional, organism-based
[35] = test system: Human immunodeficiency virus 1; experiment: Antiviral activity against VSV-G pseudotyped HIV-1 NL4-3 infected in human U373-MAGI cells assessed as Gag mutation at 260 uM incubated for 2 hrs prior to infection measured at 72 hrs post infection by illumina sequencing method (reference value: 18.4%); type: functional
[36] = test system: Human immunodeficiency virus 1; experiment: Antiviral activity against VSV-G pseudotyped HIV-1 NL4-3 infected in human U373-MAGI cells assessed as Pol mutation at 260 uM incubated for 2 hrs prior to infection measured at 72 hrs post infection by illumina sequencing method (reference value: 18.5%); type: functional
[37] = test system: Human immunodeficiency virus 1; experiment: Antiviral activity against VSV-G pseudotyped HIV-1 NL4-3 infected in human U373-MAGI cells assessed as Vif mutation at 260 uM incubated for 2 hrs prior to infection measured at 72 hrs post infection by illumina sequencing method (reference value: 19.2%); type: functional
[38] = test system: Human immunodeficiency virus 1; experiment: Antiviral activity against VSV-G pseudotyped HIV-1 NL4-3 infected in human U373-MAGI cells assessed as Env mutation at 260 uM incubated for 2 hrs prior to infection measured at 72 hrs post infection by illumina sequencing method (reference value: 21.4%); type: functional
[39] = test system: Human immunodeficiency virus 1; experiment: Antiviral activity against VSV-G pseudotyped HIV-1 NL4-3 infected in human U373-MAGI cells assessed as Nef mutation at 260 uM incubated for 2 hrs prior to infection measured at 72 hrs post infection by illumina sequencing method (reference value: 22.6%); type: functional
[40] = test system: Human immunodeficiency virus 1; experiment: Antiviral activity against VSV-G pseudotyped HIV-1 NL4-3 infected in human U373-MAGI cells assessed as C to G transversion at 260 uM incubated for 2 hrs prior to infection measured at 72 hrs post infection by illumina sequencing method relative to control; type: functional
[41] = test system: Human immunodeficiency virus 1; experiment: Antiviral activity against VSV-G pseudotyped HIV-1 NL4-3 infected in human U373-MAGI cells assessed as reduction in gag level at 0.25 to 8 uM after 2 to 72 hrs by qPCR method; type: functional, organism-based
[42] = test system: Human immunodeficiency virus 1; experiment: Antiviral activity against VSV-G pseudotyped HIV-1 NL4-3 infected in human U373-MAGI cells assessed as Gag mutation at 3.8 uM incubated for 2 hrs prior to infection measured at 72 hrs post infection by illumina sequencing method (reference value: 18.4%); type: functional
[43] = test system: Human immunodeficiency virus 1; experiment: Antiviral activity against VSV-G pseudotyped HIV-1 NL4-3 infected in human U373-MAGI cells assessed as Pol mutation at 3.8 uM incubated for 2 hrs prior to infection measured at 72 hrs post infection by illumina sequencing method (reference value: 18.5%); type: functional
[44] = test system: Human immunodeficiency virus 1; experiment: Antiviral activity against VSV-G pseudotyped HIV-1 NL4-3 infected in human U373-MAGI cells assessed as Vif mutation at 3.8 uM incubated for 2 hrs prior to infection measured at 72 hrs post infection by illumina sequencing method (reference value: 19.2%); type: functional
[45] = test system: Human immunodeficiency virus 1; experiment: Antiviral activity against VSV-G pseudotyped HIV-1 NL4-3 infected in human U373-MAGI cells assessed as Env mutation at 3.8 uM incubated for 2 hrs prior to infection measured at 72 hrs post infection by illumina sequencing method (reference value: 21.4%); type: functional
[46] = test system: Human immunodeficiency virus 1; experiment: Antiviral activity against VSV-G pseudotyped HIV-1 NL4-3 infected in human U373-MAGI cells assessed as Nef mutation at 3.8 uM incubated for 2 hrs prior to infection measured at 72 hrs post infection by illumina sequencing method (reference value: 22.6%); type: functional
[47] = test system: Human immunodeficiency virus 1; experiment: Antiviral activity against VSV-G pseudotyped HIV-1 NL4-3 infected in human U373-MAGI cells assessed as reduction in U5-gag level at 0.25 to 8 uM after 2 to 72 hrs by qPCR method; type: functional, organism-based

Structure (SMILES): NC(=O)NO [HYDROXYUREA]
- Activity (U373-MAGI [1]): inactive
- Activity (U373-MAGI [2]): inactive
- Activity (U373-MAGI [3]): Active
- Activity (U373-MAGI [4]): Active
- Activity (U373-MAGI [5]): inactive
- Activity (U373-MAGI [6]): inactive
- Activity (U373-MAGI [7]): inactive
- Activity (U373-MAGI [8]): Active
- Activity (U373-MAGI [9]): inactive
- Activity (U373-MAGI [10]): Active
- Activity (U373-MAGI [11]): inactive
- Activity (U373-MAGI [12]): inactive
- Activity (U373-MAGI [13]): Active
- Activity (U373-MAGI [14]): Active
- Activity (U373-MAGI [15]): inactive
- Activity (U373-MAGI [16]): inactive
- Activity (U373-MAGI [17]): Active
- Activity (U373-MAGI [18]): Active
- fold change (FC) [19]: 2.5
- Activity [20]: Active
- Activity [21]: Non-toxic
- Activity (U373-MAGI [22]): inactive
- Activity (U373-MAGI [23]): inactive
- Activity (U373-MAGI [24]): inactive
- Activity (U373-MAGI [25]): inactive
- Activity (U373-MAGI [26]): inactive
- Activity (U373-MAGI [27]): inactive

Structure (SMILES): Nc1ncn([C@@H]2O[C@H](CO)[C@@H](O)[C@H]2O)c(=O)n1 [AZACITIDINE]
- fold change (FC) [28]: 67
- fold change (FC) [29]: 43
- Activity [30]: 50%
- fold change (FC) [31]: 6.8
- Activity [32]: 60%
- Activity [33]: Active
- Activity [34]: Active
- Activity [35]: 17%
- Activity [36]: 25.8%
- Activity [37]: 12.8%
- Activity [38]: 19.1%
- Activity [39]: 25.4%
- Activity [40]: 10%

Structure (SMILES): Nc1ncn([C@H]2C[C@H](O)[C@@H](CO)O2)c(=O)n1 [DECITABINE]
- Activity [30]: 50%
- Activity [41]: Active
- Activity [42]: 16%
- Activity [43]: 26%
- Activity [44]: 15.9%
- Activity [45]: 20.5%
- Activity [46]: 21.5%
- Activity [47]: Active
